Test results: ChEMBL document CHEMBL4715706, “Discovery of Benzotriazolo[4,3-d][1,4]diazepines as Orally Active Inhibitors of BET Bromodomains” (ACS Med Chem Lett, 2016)

How the values were obtained:
[1] = target: Bromodomain testis-specific protein (Homo sapiens, UniProt Q58F21); assay: Inhibition of BRDT BD2 (unknown origin) using biotinylated JQ1 analog as substrate measured after 20 mins by AlphaLISA assay
[2] = Intrinsic clearance in mouse liver microsomes
[3] = target: Bromodomain-containing protein 2 (Homo sapiens, UniProt P25440); assay: Inhibition of BRD2 BD2 (unknown origin) using biotinylated JQ1 analog as substrate measured after 20 mins by AlphaLISA assay
Bromodomain-containing protein 2, sequence (P25440 whole entry): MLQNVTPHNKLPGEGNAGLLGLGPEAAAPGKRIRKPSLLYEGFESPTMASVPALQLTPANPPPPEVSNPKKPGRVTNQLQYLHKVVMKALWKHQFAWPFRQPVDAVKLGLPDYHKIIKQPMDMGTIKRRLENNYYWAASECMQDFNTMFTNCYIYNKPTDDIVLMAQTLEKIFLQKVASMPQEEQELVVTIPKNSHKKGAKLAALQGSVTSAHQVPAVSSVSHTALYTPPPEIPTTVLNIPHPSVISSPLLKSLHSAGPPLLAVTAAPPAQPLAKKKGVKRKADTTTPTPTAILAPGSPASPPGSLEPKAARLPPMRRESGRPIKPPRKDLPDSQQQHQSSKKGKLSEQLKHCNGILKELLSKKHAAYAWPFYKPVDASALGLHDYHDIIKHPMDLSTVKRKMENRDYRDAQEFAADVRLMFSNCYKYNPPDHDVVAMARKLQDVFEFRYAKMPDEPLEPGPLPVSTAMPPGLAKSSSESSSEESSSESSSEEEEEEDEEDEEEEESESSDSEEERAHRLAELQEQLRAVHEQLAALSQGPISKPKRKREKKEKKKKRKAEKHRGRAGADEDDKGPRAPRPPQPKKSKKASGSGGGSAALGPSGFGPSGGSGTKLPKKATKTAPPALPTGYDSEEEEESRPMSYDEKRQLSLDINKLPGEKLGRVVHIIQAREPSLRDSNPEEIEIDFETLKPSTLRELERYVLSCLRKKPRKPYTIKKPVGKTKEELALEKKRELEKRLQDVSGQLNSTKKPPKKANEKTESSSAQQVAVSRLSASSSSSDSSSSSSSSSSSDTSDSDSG

[4] = target: SWI/SNF-related matrix-associated actin-dependent regulator of chromatin subfamily A member 4 (Homo sapiens, UniProt P51532); assay: Inhibition of His-tagged BRG1 (unknown origin) using biotinylated acetylated peptide as substrate measured after 20 mins by AlphaLISA assay
SWI/SNF-related matrix-associated actin-dependent regulator of chromatin subfamily A member 4, sequence (P51532 whole entry): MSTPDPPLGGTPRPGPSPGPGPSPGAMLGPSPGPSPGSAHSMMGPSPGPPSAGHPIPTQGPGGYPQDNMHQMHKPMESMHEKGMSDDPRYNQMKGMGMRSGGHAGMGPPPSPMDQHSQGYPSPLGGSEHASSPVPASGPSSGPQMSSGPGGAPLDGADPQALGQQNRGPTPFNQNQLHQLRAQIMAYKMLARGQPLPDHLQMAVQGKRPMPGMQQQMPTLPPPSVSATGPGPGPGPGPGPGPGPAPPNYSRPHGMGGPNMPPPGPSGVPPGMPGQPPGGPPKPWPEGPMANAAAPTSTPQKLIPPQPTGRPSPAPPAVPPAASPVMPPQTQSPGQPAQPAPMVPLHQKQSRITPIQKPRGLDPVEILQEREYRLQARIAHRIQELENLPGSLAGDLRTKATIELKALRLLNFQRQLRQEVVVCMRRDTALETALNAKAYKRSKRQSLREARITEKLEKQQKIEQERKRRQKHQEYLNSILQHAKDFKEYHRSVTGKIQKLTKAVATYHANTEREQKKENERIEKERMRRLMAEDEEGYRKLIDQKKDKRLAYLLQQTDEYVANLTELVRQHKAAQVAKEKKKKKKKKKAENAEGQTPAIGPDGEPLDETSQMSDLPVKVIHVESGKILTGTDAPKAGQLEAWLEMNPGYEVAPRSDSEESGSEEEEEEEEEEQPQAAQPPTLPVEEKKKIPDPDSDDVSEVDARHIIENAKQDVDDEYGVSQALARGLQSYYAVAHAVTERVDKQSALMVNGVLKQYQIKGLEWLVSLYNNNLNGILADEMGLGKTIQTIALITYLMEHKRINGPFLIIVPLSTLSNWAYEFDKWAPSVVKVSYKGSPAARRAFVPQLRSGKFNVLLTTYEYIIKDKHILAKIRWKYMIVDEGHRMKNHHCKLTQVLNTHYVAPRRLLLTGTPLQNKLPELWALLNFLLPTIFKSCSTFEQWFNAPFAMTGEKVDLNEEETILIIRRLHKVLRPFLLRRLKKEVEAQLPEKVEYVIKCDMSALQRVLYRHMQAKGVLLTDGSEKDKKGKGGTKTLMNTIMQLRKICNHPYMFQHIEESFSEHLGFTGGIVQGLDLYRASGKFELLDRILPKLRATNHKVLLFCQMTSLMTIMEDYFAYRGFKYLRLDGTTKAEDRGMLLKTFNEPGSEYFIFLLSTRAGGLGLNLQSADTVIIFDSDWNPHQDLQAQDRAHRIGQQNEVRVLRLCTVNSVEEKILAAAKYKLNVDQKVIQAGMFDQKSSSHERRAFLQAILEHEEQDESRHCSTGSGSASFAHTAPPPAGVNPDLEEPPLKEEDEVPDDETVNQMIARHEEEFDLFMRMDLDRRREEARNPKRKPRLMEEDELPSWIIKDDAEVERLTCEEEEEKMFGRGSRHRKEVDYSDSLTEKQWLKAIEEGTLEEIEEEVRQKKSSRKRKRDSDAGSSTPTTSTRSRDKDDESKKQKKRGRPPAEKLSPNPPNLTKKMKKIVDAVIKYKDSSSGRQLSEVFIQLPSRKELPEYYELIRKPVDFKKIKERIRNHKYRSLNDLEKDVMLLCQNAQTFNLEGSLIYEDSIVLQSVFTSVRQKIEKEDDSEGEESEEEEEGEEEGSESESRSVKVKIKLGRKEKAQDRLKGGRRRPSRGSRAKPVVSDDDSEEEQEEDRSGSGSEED

[5] = Protein binding in dog plasma
[6] = target: T1, ATPase family AAA domain-containing protein 2 (Homo sapiens, UniProt Q6PL18); assay: Inhibition of His-tagged ATAD2 (unknown origin) using biotinylated acetylated peptide as substrate measured after 20 mins by AlphaLISA assay
T1 sequence (Q6PL18 whole entry): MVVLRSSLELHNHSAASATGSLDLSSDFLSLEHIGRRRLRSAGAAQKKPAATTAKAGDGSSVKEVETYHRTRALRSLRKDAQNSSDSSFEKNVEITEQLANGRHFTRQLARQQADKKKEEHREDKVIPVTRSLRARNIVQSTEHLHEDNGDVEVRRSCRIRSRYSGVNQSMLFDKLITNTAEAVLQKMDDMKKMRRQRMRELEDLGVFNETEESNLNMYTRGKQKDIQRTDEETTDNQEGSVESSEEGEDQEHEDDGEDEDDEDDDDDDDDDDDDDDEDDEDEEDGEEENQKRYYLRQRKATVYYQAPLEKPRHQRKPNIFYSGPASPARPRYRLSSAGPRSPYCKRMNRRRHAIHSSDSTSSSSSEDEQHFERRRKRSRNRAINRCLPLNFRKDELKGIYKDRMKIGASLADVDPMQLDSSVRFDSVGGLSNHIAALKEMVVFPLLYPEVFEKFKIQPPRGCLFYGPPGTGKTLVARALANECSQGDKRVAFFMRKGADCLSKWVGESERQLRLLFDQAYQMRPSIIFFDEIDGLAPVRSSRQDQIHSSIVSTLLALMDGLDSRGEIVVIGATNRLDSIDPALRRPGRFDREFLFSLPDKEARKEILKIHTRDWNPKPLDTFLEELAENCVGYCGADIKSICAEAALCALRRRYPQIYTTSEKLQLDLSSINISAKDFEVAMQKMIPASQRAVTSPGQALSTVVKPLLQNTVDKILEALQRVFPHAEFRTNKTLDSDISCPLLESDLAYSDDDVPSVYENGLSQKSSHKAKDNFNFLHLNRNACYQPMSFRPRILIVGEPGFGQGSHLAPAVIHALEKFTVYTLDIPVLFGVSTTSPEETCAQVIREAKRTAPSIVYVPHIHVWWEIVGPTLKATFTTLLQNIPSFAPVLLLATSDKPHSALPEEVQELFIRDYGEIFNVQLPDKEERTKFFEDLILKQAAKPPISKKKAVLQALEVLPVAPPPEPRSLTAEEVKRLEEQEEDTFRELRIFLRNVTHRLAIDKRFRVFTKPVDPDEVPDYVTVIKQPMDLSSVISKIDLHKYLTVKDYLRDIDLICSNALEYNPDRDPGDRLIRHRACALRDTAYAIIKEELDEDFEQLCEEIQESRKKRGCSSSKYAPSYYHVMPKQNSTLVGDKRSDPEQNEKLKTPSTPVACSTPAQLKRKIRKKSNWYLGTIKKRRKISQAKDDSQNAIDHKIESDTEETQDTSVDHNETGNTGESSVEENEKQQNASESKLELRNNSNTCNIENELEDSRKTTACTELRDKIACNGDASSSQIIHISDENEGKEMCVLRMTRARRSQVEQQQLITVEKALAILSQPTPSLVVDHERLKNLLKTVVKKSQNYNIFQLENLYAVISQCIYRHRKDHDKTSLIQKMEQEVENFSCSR

[7] = target: Bromodomain-containing protein 3 (Homo sapiens, UniProt Q15059); assay: Inhibition of BRD3 BD1 (unknown origin) using biotinylated JQ1 analog as substrate measured after 20 mins by AlphaLISA assay
Bromodomain-containing protein 3, sequence (Q15059 whole entry): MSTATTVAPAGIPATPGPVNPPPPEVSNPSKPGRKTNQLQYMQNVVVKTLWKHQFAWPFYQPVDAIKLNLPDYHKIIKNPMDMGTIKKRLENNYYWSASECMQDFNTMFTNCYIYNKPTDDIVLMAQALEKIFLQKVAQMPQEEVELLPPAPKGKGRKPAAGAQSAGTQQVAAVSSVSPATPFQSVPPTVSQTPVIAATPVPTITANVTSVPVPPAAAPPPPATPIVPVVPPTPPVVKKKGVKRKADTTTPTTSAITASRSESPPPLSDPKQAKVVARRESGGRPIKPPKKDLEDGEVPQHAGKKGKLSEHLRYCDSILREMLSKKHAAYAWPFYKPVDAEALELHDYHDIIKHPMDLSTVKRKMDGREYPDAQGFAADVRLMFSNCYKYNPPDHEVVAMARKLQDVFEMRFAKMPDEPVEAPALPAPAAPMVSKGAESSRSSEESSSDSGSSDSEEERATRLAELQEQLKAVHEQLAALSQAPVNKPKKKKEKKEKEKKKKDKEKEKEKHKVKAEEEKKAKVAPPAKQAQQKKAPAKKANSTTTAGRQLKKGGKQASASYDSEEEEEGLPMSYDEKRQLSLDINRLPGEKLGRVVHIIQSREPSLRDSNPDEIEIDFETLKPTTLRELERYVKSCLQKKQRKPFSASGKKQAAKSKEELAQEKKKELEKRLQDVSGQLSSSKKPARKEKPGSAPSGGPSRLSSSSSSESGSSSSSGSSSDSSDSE

Work on `Cc1nnc2n1-c1ccc(-c3ccc(N)nc3)cc1N(c1ccc(Cl)cc1)C[C@H]2C` yielded an IC50 [1] of 3 nM, a microsomal CLint [2] of 16 µL/min/mg and an IC50 [3] of 3 nM. For the same compound, the IC50 [4] was greater than 15000 nM, the fraction unbound [5] was 0.04 and the IC50 [6] was greater than 15000 nM. It also gave an IC50 [7] of 3 nM.
